From US20180186823A1, “PLATINUM COMPOUNDS, COMPOSITIONS, AND USES THEREOF” (PLACON THERAPEUTICS, INC., priority 2015, published 2018)
Read-outs that look alike come from different tables or passages of the source. One block for each molecule: values may come before it.

Assays:
[1] = Tumor platinum levels (ICP-MS) in H460 tumor-bearing nude mice; format: in vivo, mouse
Method: To examine the ability of compounds disclosed herein to accumulate in tumors, a murine cancer model was used. Animals were inoculated with 5×10^5 H460 […] lung cancer cells via subcutaneous injection to the flank. Tumors were allowed to reach an approximate volume of ˜500 mm^3. Animals were then randomized into treatment groups of 3 animals per time point and were dosed at 4 mg/kg. The 24-hour time point was used as a benchmark across compounds.
Tumor platinum levels were determined by inductively coupled plasma mass spectrometry (ICP-MS). Tumors were excised from animals and dissolved in fuming nitric acid (60% w/w) by adding four parts nitric acid to 1 part tumor w/w and heating overnight at 60° C. The resulting digest was diluted 1:10 in ICP-MS analysis buffer (1% nitric acid, 2% Triton® X-100), and directly introduced into the ICP-MS unit by peristaltic pump. The end dilution factor for the samples as introduced to the ICP-MS was 50×.

Calu-6 NSCLC xenografts = experiment: Tumor growth inhibition in Calu-6 NSCLC xenografts in nude mice; format: in vivo, mouse; conditions: dose not given
From the text: (§1) Tumor measurements were taken twice weekly, using vernier calipers.

A2780 ovarian xenografts = experiment: Tumor growth inhibition in A2780 ovarian xenografts in nude mice; format: in vivo, mouse; conditions: for TGI %: dose not given; for TGI % compared to cisplatin and oxaliplatin (FIG. 17): in vivo screen, A2780 model
From the text: as §1

[2] = test system: MX-1 human breast cancer xenograft; format: in vivo, mouse; conditions: for % T/C (mean tumor volume) / % T/C (median tumor volume) / Mean tumor volume / Median tumor volume: days 1, 5, 8, 12
From the text: MX-1 cell line is estrogen receptor negative and Her2 normal. It is generic and BRCA1 and BRCA2 mutant: BRCA1 truncating mutation (3363delGAAA) and BRCA2 mutations (16864A>C, Asn289His, and 22184A>G, Asn991Asp). Average tumor volumes and platinum levels in the tumors were shown in FIG. 29 and Table 9. % T/C in Table 9 is the tumor to control ratio, i.e., the size of tumor divided by the size of tumor control. The lower % T/C is, the higher TGI % is.

H460 cells = experiment: In vitro inhibition of cell proliferation (CellTiter-Glo); format: cell-based, human; conditions: 48 hours treatment; starting dose 20 uM, three-fold dilutions
Method: Human cancer cell lines were plated in 96 well plates (Costar) and 24 hours later were treated with a compound for 48-72 hours. Specifically, H460 cells (ATCC) were plated at a concentration of 1,500 cells per well and compound treatment was carried out for 48 hours. Compound starting dose was 20 uM and three-fold serial dilutions were done for a total of ten points. Inhibition of cell proliferation was measured using CellTiter-Glo® reagent using the standard protocol (Promega) and a Glomax® multi+detection system (Promega). Percent proliferation inhibition was calculated using the following formula: % inhibition=(control-treatment)/control*100. Control is defined as vehicle alone. IC50 curves were generated using the nonlinear regression analysis (four parameter) with GraphPad Prism 6.

Rat toxicology study = format: in vivo
NCI-H520 = experiment: Multiple-dose efficacy study in lung cancer (NSCLC) model NCI-H520; format: in vivo; conditions: 15 mg/kg
Method: Tumor volumes and platinum levels were tracked over a course of 32 days after treatment of multiple doses of compound 8 (dosed at days 0, 3, 7 and 10) in lung cancer (NSCLC) model NCI-H520. Compound 8 was dosed at 15 mg/kg.
Cell dedifferentiation and apoptosis were studied with immunohistochemical (IHC) and TUNEL stainings.

[3] = H460 tumors, dosed at 4 mg/kg, 24-hour time point
[4] = Table 6 study, Calu-6 xenografts
[5] = Table 5 study, A2780 xenografts
[6] = nude, mouse, in vivo, 4 mg/kg, 24 h

Molecule: O=C1[O][Pt]2([NH][C@@H]3CCCC[C@H]3[NH]2)[O]C1=O [Oxaliplatin]
Platinum in tumor (mM/mmole/kg platinum dosed) [1, 3]: 0.12 mM/mmole/kg platinum dosed
TGI % (Calu-6 NSCLC xenografts; Table 4 study, comparators): 56.7%
TGI % (Calu-6 NSCLC xenografts; [4]): 21.19%
TGI % (A2780 ovarian xenografts; Table 2 study, comparators): 45.9%
TGI % (A2780 ovarian xenografts; Table 3 study, comparators): 40.1%
TGI % (A2780 ovarian xenografts; [5]): 43.75%

Molecule: CC(=O)[O][Pt]([NH2])([NH2])([Cl])([Cl])[O]C(=O)CCCCCN1C(=O)C=CC1=O [Compound 11]
Platinum in tumor (mM/mmole/kg platinum dosed) [1, 6]: 0.68 mM/mmole/kg platinum dosed
TGI % compared to cisplatin and oxaliplatin (FIG. 17) (A2780 ovarian xenografts): superior TGI % to cisplatin and oxaliplatin

Molecule: N.N.[Cl][Pt][Cl] [Cisplatin]
% T/C (mean tumor volume) ([2]; Day 1, 3 mg/kg): 100.6%
% T/C (median tumor volume) ([2]; Day 1, 3 mg/kg): 105.5%
Mean tumor volume ([2]; Day 1, 3 mg/kg): 153.6 mm^3
Median tumor volume ([2]; Day 1, 3 mg/kg): 155.2 mm^3
% T/C (mean tumor volume) ([2]; Day 5, 3 mg/kg): 96.2%
% T/C (median tumor volume) ([2]; Day 5, 3 mg/kg): 107.3%
Mean tumor volume ([2]; Day 5, 3 mg/kg): 343.7 mm^3
Median tumor volume ([2]; Day 5, 3 mg/kg): 350.2 mm^3
% T/C (mean tumor volume) ([2]; Day 8, 3 mg/kg): 39.3%
% T/C (median tumor volume) ([2]; Day 8, 3 mg/kg): 42.9%
Mean tumor volume ([2]; Day 8, 3 mg/kg): 251.2 mm^3
Median tumor volume ([2]; Day 8, 3 mg/kg): 266.3 mm^3
% T/C (mean tumor volume) ([2]; Day 12, 3 mg/kg): 4.9%
% T/C (median tumor volume) ([2]; Day 12, 3 mg/kg): 5.4%
Mean tumor volume ([2]; Day 12, 3 mg/kg): 57.6 mm^3
Median tumor volume ([2]; Day 12, 3 mg/kg): 57.6 mm^3
TGI % Day 15 ([2]; Day 15, 3 mg/kg): 98.6%
% T/C (mean tumor volume) ([2]; Day 15, 3 mg/kg): 1.4%
% T/C (median tumor volume) ([2]; Day 15, 3 mg/kg): 1.5%
Mean tumor volume ([2]; Day 15, 3 mg/kg): 26.7 mm^3
Median tumor volume ([2]; Day 15, 3 mg/kg): 29.7 mm^3
Platinum in tumor (mM/mmole/kg platinum dosed) [1, 3]: 0.27 mM/mmole/kg platinum dosed
TGI % (Calu-6 NSCLC xenografts; Table 4 study, comparators): 91.4%
TGI % (Calu-6 NSCLC xenografts; [4]): 94.57%
TGI % (A2780 ovarian xenografts; Table 2 study, comparators): 54.5%
TGI % (A2780 ovarian xenografts; Table 3 study, comparators): 44.2%
TGI % (A2780 ovarian xenografts; [5]): 53.04%
IC50 (H460 cells): 2000 nM

Molecule: CC(=O)[O][Pt]([NH2])([NH2])([Cl])([Cl])[O]C(=O)NCCCCCN1C(=O)C=CC1=O [Compound 8]
tumor outcome at day 15 (in words) ([2]; day 15): Tumor disappeared
Platinum in tumor (mM/mmole/kg platinum dosed) [1, 6]: 0.51 mM/mmole/kg platinum dosed
kidney toxicity (blood markers and histopathology) compared to cisplatin (Rat toxicology study; at a higher dose of platinum): improvement in kidney toxicity compared to cisplatin
other histopathology findings (Rat toxicology study; rat, in vivo): No other histopathology findings
tumor growth inhibition versus cisplatin (NCI-H520; days 0, 3, 7 and 10, cisplatin 3 mg/kg, 32 days): superior tumor growth inhibition than cisplatin
apoptosis and dedifferentiation in tumors (IHC, TUNEL) (NCI-H520; images from day 10): significant and sustained increase in apoptosis and dedifferentiation
TGI % compared to cisplatin and oxaliplatin (FIG. 17) (A2780 ovarian xenografts): superior TGI % to cisplatin and oxaliplatin

Platinum in tumor (mM/mmole/kg platinum dosed) [1, 6]: 0.53 mM/mmole/kg platinum dosed
Molecule: COCC(=O)[O][Pt]([NH2])([NH2])([Cl])([Cl])[O]C(=O)CCCCCN1C(=O)C=CC1=O [Compound 9]

Molecule: acetate 6-(2,5-dioxo-2H-pyrrol-1(5H)-yl) hexanoate oxaliplatin [Compound 1]
Platinum in tumor (mM/mmole/kg platinum dosed) [1, 3]: 0.57 mM/mmole/kg platinum dosed
TGI % compared to cisplatin and oxaliplatin (FIG. 17) (A2780 ovarian xenografts): superior TGI % to cisplatin and oxaliplatin

Platinum in tumor (mM/mmole/kg platinum dosed) [1, 6]: 0.51 mM/mmole/kg platinum dosed
Molecule: CCNC(=O)[O][Pt]([NH2])([NH2])([Cl])([Cl])[O]C(=O)CCCCCN1C(=O)C=CC1=O [Compound 7]
